From US3989837A, “Pharmaceutical compositions” (Chinoin Gyogyszer-es Vegyeszeti Termekek Gyara RT, priority 1972, dated 1976)

System: rats
Test: Testing of ulcerogenic effect in rats (Table 5)
Type: in vivo, rat
Conditions: 5 days
Description: Unstarved rats weighing 160-180 g. were used for the experiment. The animals were divided into groups of 20. The compounds were administered as 1% suspensions stabilized with methylcellulose, by the oral route, at a volume of 0.2 ml./100 g. Treatment was continued for 5 days (1 treatment/day), and was suspended on the 6th and 7th day. On the 8th experimental day the […] were killed by ether overdosage. After laparatomy the stomachs were removed, washed twice in water and thereafter dipped in formaline. An incision was made along the large curvature, then again rinced with water and spread on a PVC plate. The gastric mucosa is evaluated macroscopically by two methods:
1. The ulcer index was calculated. The animals were divided into groups on the ground of the diameter of the largest ulcer and the extent of the changes was scored as follows:
The number of animals in the individual groups was multiplied by the number of scores and the proucts of multiplications are added and the sum thus obtained is divided by the number of animals.
2. Ulcer counts were calculated. The number of ulcers was counted on each stomach and the total number of ulcers was divided by the number of animals. […] Changes found in the intestinates were evaluated as "all or naught" and expressed in per cent of the number of animals.

Structure (SMILES): COc1ccc2c(c1)c(CC(=O)OCC(Cl)(Cl)Cl)c(C)n2C(=O)c1ccc(Cl)cc1 [Example 5, 1-(p-chlorobenzoyl)-2-methyl-5-methoxy-indol-3-yl-acetic-acid trichloroethyl ester]
- Deaths (oral 27.3 mg./kg.): 1/20
- Number of surviving animals (oral 27.3 mg./kg.): 19
- Per cent of animals exhibiting changes of intest. mucosa (oral 27.3 mg./kg.): 10.5 Per cent
- Ulcer number (oral 27.3 mg./kg.): 0
- Deaths (oral 54.7 mg./kg.): 5/20
- Number of surviving animals (oral 54.7 mg./kg.): 15
- Per cent of animals exhibiting changes of intest. mucosa (oral 54.7 mg./kg.): 80 Per cent
- Ulcer number (oral 54.7 mg./kg.): 0.27
